Assay results taken from PMC7796304, “Nephrotoxic Potential of Putative 3,5-Dichloroaniline (3,5-DCA) Metabolites and Biotransformation of 3,5-DCA in Isolated Kidney Cells from Fischer 344 Rats” (International Journal of Molecular Sciences, 2020).
Values belong to the compound of their own block, whether it stands above or below them.

What was measured:
[1] = system: isolated kidney cells (IKC); assay: LDH release cytotoxicity, time and concentration course, in isolated kidney cells; settings: for LDH release (marker of cytotoxicity) / nephrotoxic potential among the metabolites tested: 0-1.5 mM; for LDH release (marker of cytotoxicity): 60 or 90 min; for nephrotoxic potential among the metabolites tested: up to 90 min
[2] = system: isolated kidney cells (IKC); assay: 3,5-DCA metabolism by IKC, HPLC of media and cells; settings: for free aminochlorophenol after arylsulfatase or β-glucuronidase treatment of media or cell lysates: 45 or 90 min
[3] = system: isolated kidney cells (IKC); assay: Effect of DEDTCA pretreatment on 3,5-DCA metabolism in IKC; settings: 90 min; for detection as 3,5-DCA metabolite in media and cells: DEDTCA experiment; for detection as 3,5-DCA metabolite in media and cells / Percent of Dose, Cells / Percent of Dose, Media: 3,5-DCA 1.0 mM; for Percent of Dose, Cells / Percent of Dose, Media: N = 4, mean ± SE
[4] = system: isolated kidney cells (IKC); parameters: method as in PMID 26808022; settings: 90 min exposure; cited from earlier work
[5] = parameters: method as in PMID 26808022; settings: calculated, Fischer 344 rat; cited from earlier work
[6] = system: isolated kidney cells (IKC); parameters: method as in PMID 26808022; settings: cited from earlier work
kidney = settings: cited from earlier work
renal cortical slices = settings: cited from earlier work
[7] = system: rat renal cortical slices; parameters: method as in PMID 18243470; settings: 2 h exposure; cited from earlier work
[8] = system: rat renal cortical slices; parameters: method as in PMID 8023337; settings: cited from earlier work
[9] = system: isolated kidney cells (IKC); parameters: method as in PMID 26808022; settings: cited from earlier work; remark: listed apart in the source
[10] = system: isolated kidney cells (IKC); assay: Pretreatment with antioxidants or enzyme inhibitors before 3,5-DCNB, LDH release in IKC; settings: 1.0 mM 3,5-DCNB, 60 min, pretreatment concentrations per Table 4
[11] = system: isolated kidney cells (IKC); settings: 0.5 mM 3,5-DCPHA, 60 min, pretreatment concentrations per Table 4
[12] = IKC incubated with 1.0 mM 3,5-DCA
[13] = IKC incubated with 0.5 mM 3,5-DCA, 90 min, N = 3, mean ± SE
[14] = IKC incubated with 1.0 mM 3,5-DCA, 90 min, N = 4, mean ± SE
[15] = +DEDTCA (0.1 mM, 30 min pretreatment)

Structure (SMILES): Nc1cc(Cl)cc(Cl)c1O [2-A-4,6-DCP, 2-amino-4,6-dichlorophenol]
- LDH release (marker of cytotoxicity) [1]: did not result in significant increases in LDH release
- nephrotoxic potential among the metabolites tested [1]: not cytotoxic
- free aminochlorophenol after arylsulfatase or β-glucuronidase treatment of media or cell lysates [2, 12]: did not reveal any free 2-A-4,6-DCP or 4-A-2,6-DCP
- detection as 3,5-DCA metabolite in media and cells [3]: no 2-A-4,6-DCP, 4-A-2,6-DCP or 3,5-DCPHA detected

Structure (SMILES): Nc1cc(Cl)cc(Cl)c1 [3,5-DCA, 3,5-dichloroaniline]
- concentration leading to increased LDH release [4]: ≥ 1000 µM
- maximum blood level from a nephrotoxic dose [5]: ~ 1.25 mM
- concentration that induces cytotoxicity (increased LDH release) ([1]; 90 min): 1000 µM
- non-cytotoxic concentration ([1]; 90 min): 0.5 mM
- reduced and total glutathione levels [6]: both reduced
- Percentage of Dose, Cells [2, 13]: 6.82 ± 3.33%
- Percentage of Dose, Media [2, 13]: 89.31 ± 6.32%
- Percentage of Dose, Cells [2, 14]: 13.19 ± 2.12%
- Percentage of Dose, Media [2, 14]: 87.13 ± 4.56%
- fraction of 3,5-DCA metabolized to 3,5-DCAA and 3,5-DCNB ([2]; IKC, 0.5 or 1.0 mM, 90 min): Less than 5%
- renal effects of in vivo exposure (kidney; Sprague–Dawley or Fischer 344 rats): elevated blood urea nitrogen (BUN) concentration, decreased organic ion transport in proximal tubular cells, decreased kidney weight, proteinuria, and hematuria
- Percent of Dose, Cells [3, 15]: 14.67 ± 1.78%
- Percent of Dose, Media [3, 15]: 91.14 ± 3.04%
- Percent of Dose, Cells ([3]; −DEDTCA): 16.01 ± 2.02%
- Percent of Dose, Media ([3]; −DEDTCA): 89.43 ± 5.66%

- Percentage of Dose, Cells [2, 13]: 0.07 ^ %
- Percentage of Dose, Media [2, 13]: 1.86 ± 0.42%
- Percentage of Dose, Media [2, 14]: 0.56 ± 0.07%
- Percent of Dose, Media [3, 15]: 0.30 ± 0.05%
- Percent of Dose, Cells ([3]; −DEDTCA): 0.02 ^ %
- Percent of Dose, Media ([3]; −DEDTCA): 0.50 ± 0.03%
Structure (SMILES): CC(=O)Nc1cc(Cl)cc(Cl)c1 [3,5-DCAA, 3,5-dichloroacetanilide]
- LDH release (marker of cytotoxicity) [1]: did not significantly increase LDH release
- nephrotoxic potential among the metabolites tested [1]: not cytotoxic

Structure (SMILES): O=[N+]([O-])c1cc(Cl)cc(Cl)c1 [3,5-DCNB, 3,5-dichloronitrobenzene]
- nephrotoxic potential among the metabolites tested [1]: intermediate in nephrotoxic potential
- concentration giving significant increase in LDH release ([1]; 90 min exposure): ≥ 1000 µM
- nephrotoxic potential among dichloronitrobenzenes (renal cortical slices): least potent nephrotoxicant among the dichloronitrobenzenes
- Percentage of Dose, Cells [2, 13]: 0.41 ^ %
- Percentage of Dose, Media [2, 13]: 2.80 ^ %
- Percentage of Dose, Cells [2, 14]: 0.34 ± 0.19 %
- Percentage of Dose, Media [2, 14]: 1.18 ± 0.57 %
- Percent of Dose, Cells [3, 15]: 0.06 ^ %
- Percent of Dose, Media [3, 15]: 0.09 ^ %
- Percent of Dose, Cells ([3]; −DEDTCA): 0.13 ^ %
- Percent of Dose, Media ([3]; −DEDTCA): 0.31 ± 0.19 %

Structure (SMILES): ONc1cc(Cl)cc(Cl)c1 [3,5-DCPHA]
- nephrotoxic potential among the metabolites tested [1]: most potent nephrotoxicant
- concentration giving significant increase in LDH release ([1]; 60 min exposure): ≥ 250 µM
- concentration giving significant increase in LDH release ([1]; 90 min exposure): ≥ 250 µM
- detection as 3,5-DCA metabolite in media and cells [3]: no 2-A-4,6-DCP, 4-A-2,6-DCP or 3,5-DCPHA detected

Structure (SMILES): Nc1cc(Cl)c(O)c(Cl)c1 [4-A-2,6-DCP, 4-amino-2,6-dichlorophenol]
- concentration required to increase LDH release ([1]; 90 min exposure, albumin in medium, no reference given): ≥ 250 µM
- concentration increasing LDH release [7]: ≥ 50 µM
- free aminochlorophenol after arylsulfatase or β-glucuronidase treatment of media or cell lysates [2, 12]: did not reveal any free 2-A-4,6-DCP or 4-A-2,6-DCP
- nephrotoxicity in vivo (kidney; male Fischer 344 rats, 0.38 mmol/kg, i.p.): marked nephrotoxicity
- detection as 3,5-DCA metabolite in media and cells [3]: no 2-A-4,6-DCP, 4-A-2,6-DCP or 3,5-DCPHA detected
- concentration reducing uptake of p-aminohippurate (PAH) [8]: 5 µM
- concentration reducing uptake of tetraethylammonium (TEA) [8]: 50 µM

Structure (SMILES): CCN(CC)C(=S)S [DEDTCA, diethyldithiocarbamic acid, reference compound]
- effect of inhibitor pretreatment on 3,5-DCA cytotoxicity [9]: markedly reduced 3,5-DCA cytotoxicity
- effect of pretreatment on 3,5-DCA metabolite formation ([3]; DEDTCA 0.1 mM, then 3,5-DCA 1.0 mM): formation of 3,5-DCAA and 3,5-DCNB were reduced

Structure (SMILES): COc1ccc2c(c1)c(CC(=O)O)c(C)n2C(=O)c1ccc(Cl)cc1 [Indomethacin]
- effect of pretreatment on 3,5-DCNB-induced cytotoxicity (LDH release) [10]: tended to reduce 3,5-DCNB-induced LDH release but did not reach a significant difference

Structure (SMILES): CC(=O)N[C@@H](CS)C(=O)O [N-acetyl-L-cysteine]
- effect of pretreatment on 3,5-DCNB-induced cytotoxicity (LDH release) [10]: significantly attenuated
- effect of pretreatment on 3,5-DCPHA-induced cytotoxicity (LDH release) [11]: partially attenuated

Structure (SMILES): O=C1O[C@H]([C@@H](O)CO)C(O)=C1O [ascorbate]
- effect of pretreatment on 3,5-DCNB-induced cytotoxicity (LDH release) [10]: significantly attenuated
- effect of pretreatment on 3,5-DCPHA-induced cytotoxicity (LDH release) [11]: not effective at reducing 3,5-DCPHA cytotoxicity

Structure (SMILES): N[C@@H](CCC(=O)N[C@@H](CS)C(=O)NCC(=O)O)C(=O)O [glutathione]
- effect of pretreatment on 3,5-DCNB-induced cytotoxicity (LDH release) [10]: significantly attenuated
- effect of pretreatment on 3,5-DCPHA-induced cytotoxicity (LDH release) [11]: fully protected

Structure (SMILES): NNC(=O)c1ccncc1 [isoniazid]
- effect of inhibitor pretreatment on 3,5-DCA cytotoxicity [9]: had no effect on 3,5-DCA cytotoxicity

Structure (SMILES): O=C(O)CC(S)C(=O)O (stereo not shown) [mercaptosuccinate]
- effect of pretreatment on 3,5-DCNB-induced cytotoxicity (LDH release) [10]: significantly attenuated

Structure (SMILES): CC(C)(C(=O)c1cccnc1)c1cccnc1 [metyrapone]
- effect of pretreatment on 3,5-DCNB-induced cytotoxicity (LDH release) [10]: significantly attenuated

Structure (SMILES): CCCCCCCCN [n-octylamine]
- effect of pretreatment on 3,5-DCNB-induced cytotoxicity (LDH release) [10]: significantly attenuated

Structure (SMILES): CCCCOCCOCCOCc1cc2c(cc1CCC)OCO2 [piperonyl butoxide]
- effect of pretreatment on 3,5-DCNB-induced cytotoxicity (LDH release) [10]: significantly attenuated

Structure (SMILES): Cc1c(C)c2c(c(C)c1O)CC[C@@](C)(CCC[C@H](C)CCC[C@H](C)CCCC(C)C)O2 [α-tocopherol]
- effect of pretreatment on 3,5-DCNB-induced cytotoxicity (LDH release) [10]: significantly attenuated
